# Measured values taken from ChEMBL document CHEMBL4382223, “Design, synthesis and biological evaluation of anthranilamide derivatives as potential factor Xa (fXa) inhibitors” (Bioorg Med Chem, 2018).
# Active and inactive are the calls of the source. The calls are words filed in the database; no cut-off is given here.
# Experiments:
# Coagulation factor X = Coagulation factor X (Homo sapiens, UniProt P00742); test: Inhibition of human factor Xa using S-2222 as substrate preincubated for 30 mins followed by substrate addition and measured for 20 mins
# Homo sapiens [1] = species: Homo sapiens; test: Selectivity ratio of IC50 for human recombinant thrombin expressed in HEK293 cells to IC50 for human factor Xa; format: cell-based
# Homo sapiens [2] = species: Homo sapiens; test: Selectivity ratio of IC50 for human trypsin to IC50 for human factor Xa
# Homo sapiens [3] = species: Homo sapiens; test: Selectivity ratio of IC50 for human factor 7a to IC50 for human factor Xa
# Homo sapiens [4] = species: Homo sapiens; test: Selectivity ratio of IC50 for human factor 9a to IC50 for human factor Xa
# Plasma [5] = test: Anticoagulant activity in citrated rabbit plasma assessed as concentration required to double prothrombin time after 10 mins by coagulometric analysis; format: functional, Oryctolagus cuniculus
# Trypsin = Trypsin (Homo sapiens, UniProt P07477+P07478+P35030); test: Inhibition of human trypsin preincubated for 30 mins followed by substrate addition and measured for 20 mins; format: protein assay
# Prothrombin = Prothrombin (Homo sapiens, UniProt P00734); test: Inhibition of human recombinant thrombin expressed in HEK293 cells using S-2238 as substrate preincubated for 30 mins followed by substrate addition and measured for 20 mins; format: single protein
# Plasma [6] = test: Anticoagulant activity in citrated rabbit plasma assessed as concentration required to double activated partial thromboplastin time after 10 mins by coagulometric analysis; format: functional, Oryctolagus cuniculus
# Coagulation factor VII = biological target: T1, Coagulation factor VII (Homo sapiens, UniProt P08709); test: Inhibition of human factor 7a preincubated for 30 mins followed by substrate addition and measured for 20 mins
# T1 sequence (P08709 whole entry): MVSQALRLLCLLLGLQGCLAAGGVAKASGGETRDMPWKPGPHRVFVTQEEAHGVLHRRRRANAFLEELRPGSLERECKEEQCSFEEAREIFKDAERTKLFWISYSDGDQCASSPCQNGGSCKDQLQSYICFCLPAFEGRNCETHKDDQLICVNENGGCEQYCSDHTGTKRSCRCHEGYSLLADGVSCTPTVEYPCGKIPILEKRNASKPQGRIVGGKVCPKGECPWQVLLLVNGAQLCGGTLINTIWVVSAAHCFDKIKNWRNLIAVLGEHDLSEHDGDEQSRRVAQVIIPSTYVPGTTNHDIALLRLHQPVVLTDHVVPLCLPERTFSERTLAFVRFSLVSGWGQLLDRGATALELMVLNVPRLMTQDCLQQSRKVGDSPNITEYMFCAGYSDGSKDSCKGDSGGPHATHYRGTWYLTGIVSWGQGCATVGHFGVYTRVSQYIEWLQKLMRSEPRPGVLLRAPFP
# Coagulation factor IX = Coagulation factor IX (Homo sapiens, UniProt P00740); test: Inhibition of human factor 9a preincubated for 30 mins followed by substrate addition and measured for 20 mins
# [7] = Cmax in Sprague-Dawley rat at 3 mg/kg, po by LC-MS analysis; format: ADME, organism-based; design: dose 3 mg/kg, route oral; conditions: in vivo
# [8] = Plasma clearance in Sprague-Dawley rat at 1 mg/kg, iv by LC-MS analysis; format: ADME, organism-based; conditions: in vivo
# Rattus norvegicus [9] = test: Antithrombotic activity in rat model of FeCl3-induced venous thrombosis dosed orally 60 mins before thrombus formation; format: functional, organism-based
# Rattus norvegicus [10] = test: Antithrombotic activity in rat model of arteriovenous shunt thrombosis assessed as reduction thrombus weight at 5 mg/kg, po dosed 90 mins before shunt was opened for 15 mins relative to untreated control; format: functional; design: scale not given: the % may be the effect or the level left
# H9c2 = test: Cytoprotective activity against hypoxia/reoxygenation-induced toxicity in rat H9c2 cells assessed as increase in cell viability at 1 to 10 uM by MTT assay; format: functional, cell-based
# [11] = Tmax in Sprague-Dawley rat at 3 mg/kg, po by LC-MS analysis; format: ADME, organism-based; conditions: in vivo
# [12] = Elimination half life in Sprague-Dawley rat at 3 mg/kg, po by LC-MS analysis; format: ADME, organism-based; conditions: in vivo, read-out: beta t1/2 (converted)
# [13] = AUC (0 to infinity) in Sprague-Dawley rat at 1 mg/kg, iv by LC-MS analysis; format: ADME, organism-based; design: dose 1 mg/kg, time infinity, route intravenous; conditions: in vivo
# [14] = AUC (0 to infinity) in Sprague-Dawley rat at 3 mg/kg, po by LC-MS analysis; format: ADME, organism-based; design: dose 3 mg/kg, route oral, time infinity; conditions: in vivo
# Rattus norvegicus [15] = test: Antithrombotic activity in rat model of arteriovenous shunt thrombosis assessed as reduction thrombus weight at 1 mg/kg, po dosed 90 mins before shunt was opened for 15 mins relative to untreated control; format: functional; design: scale not given: the % may be the effect or the level left
# [16] = Toxicity in rat assessed as prolongation of tail bleeding dosed orally 60 mins before tails of anesthetized rat were transected and measured over 30 mins; format: organism-based; conditions: in vivo, po, 0.5 h
# Rattus norvegicus [17] = test: Antithrombotic activity in rat model of arteriovenous shunt thrombosis assessed as reduction thrombus weight at 10 mg/kg, po dosed 90 mins before shunt was opened for 15 mins relative to untreated control; format: functional; design: scale not given: the % may be the effect or the level left
# Rattus norvegicus [18] = test: Antithrombotic activity in rat model of arteriovenous shunt thrombosis dosed orally 90 mins before shunt was opened for 15 mins; format: functional, organism-based
# Rattus norvegicus [19] = test: Antithrombotic activity in rat model of FeCl3-induced venous thrombosis assessed as reduction thrombus weight at 1 mg/kg, po dosed 60 mins before thrombus formation relative to untreated control; format: functional; design: scale not given: the % may be the effect or the level left
# [20] = Oral bioavailability in Sprague-Dawley rat at 3 mg/kg by LC-MS analysis; format: ADME, organism-based; conditions: in vivo
# [21] = Elimination half life in Sprague-Dawley rat at 1 mg/kg, iv by LC-MS analysis; format: ADME, organism-based; conditions: in vivo
# [22] = Volume of distribution at steady state in Sprague-Dawley rat at 1 mg/kg, iv by LC-MS analysis; format: ADME, organism-based; conditions: in vivo
# Rattus norvegicus [23] = test: Antithrombotic activity in rat model of FeCl3-induced venous thrombosis assessed as reduction thrombus weight at 10 mg/kg, po dosed 60 mins before thrombus formation relative to untreated control; format: functional; design: scale not given: the % may be the effect or the level left
# [24] = Toxicity in rat assessed as prolongation of tail bleeding at 1 to 10 mg/kg, po dosed 60 mins before tails of anesthetized rat were transected and measured over 30 mins; format: organism-based; conditions: in vivo, 0.5 h
# Rattus norvegicus [25] = test: Antithrombotic activity in rat model of FeCl3-induced venous thrombosis assessed as reduction thrombus weight at 5 mg/kg, po dosed 60 mins before thrombus formation relative to untreated control; format: functional; design: scale not given: the % may be the effect or the level left
# Chain of Coagulation factor X (P00742 41-179 limits assumed): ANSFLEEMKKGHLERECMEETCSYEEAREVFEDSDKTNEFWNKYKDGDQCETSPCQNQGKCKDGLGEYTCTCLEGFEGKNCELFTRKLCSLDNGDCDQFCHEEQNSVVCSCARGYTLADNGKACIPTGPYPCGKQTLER
# Chain of Coagulation factor X (P00742 235-488 limits assumed): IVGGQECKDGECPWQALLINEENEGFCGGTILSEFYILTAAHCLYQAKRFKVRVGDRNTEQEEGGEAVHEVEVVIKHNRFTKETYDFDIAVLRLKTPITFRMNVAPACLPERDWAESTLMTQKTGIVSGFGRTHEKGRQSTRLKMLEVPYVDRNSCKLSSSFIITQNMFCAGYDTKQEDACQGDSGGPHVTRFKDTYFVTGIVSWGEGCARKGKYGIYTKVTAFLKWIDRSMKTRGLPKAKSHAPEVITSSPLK
# Chain of Coagulation factor IX (P00740 47-191 limits assumed): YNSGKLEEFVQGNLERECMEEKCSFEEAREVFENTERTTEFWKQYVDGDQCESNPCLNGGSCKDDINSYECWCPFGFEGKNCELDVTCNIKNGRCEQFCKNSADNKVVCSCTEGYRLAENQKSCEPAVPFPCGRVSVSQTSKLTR
# Chain of Coagulation factor IX (P00740 227-461 limits assumed): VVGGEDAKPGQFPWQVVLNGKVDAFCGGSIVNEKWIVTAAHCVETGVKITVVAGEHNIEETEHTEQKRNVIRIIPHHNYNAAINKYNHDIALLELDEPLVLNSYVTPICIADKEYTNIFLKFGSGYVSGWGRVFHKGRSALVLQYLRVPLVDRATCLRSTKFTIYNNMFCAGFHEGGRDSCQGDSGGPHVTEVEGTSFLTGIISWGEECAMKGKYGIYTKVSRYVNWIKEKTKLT
smiles,measurement,setting,value
COc1cccc(NC(=O)c2cc(OC)ccc2NC(=O)c2nc3c(s2)CN(C)CC3)c1,IC50,Coagulation factor X,981 nM
COc1ccc(NC(=O)c2ccc(N3CCCCC3=O)cc2)c(C(=O)Nc2ccc(F)cc2)c1,IC50,Coagulation factor X,1080 nM
COc1ccc(NC(=O)c2ccc(N3CCCCC3=O)cc2)c(C(=O)Nc2cccc(F)c2)c1,IC50,Coagulation factor X,45 nM
COc1ccc(NC(=O)c2nc3c(s2)CN(C)CC3)c(C(=O)Nc2ccc(C)cc2)c1,IC50,Coagulation factor X,30 nM
COc1ccc(NC(=O)c2cc(OC)ccc2NC(=O)c2ccc(N3CCOCC3=O)cc2)cc1,IC50,Coagulation factor X,77 nM
COc1ccc(NC(=O)c2nc3c(s2)CN(C)CC3)c(C(=O)Nc2ccc(C)cn2)c1,IC50,Coagulation factor X,10 nM
same,Ratio IC50,Homo sapiens [1],> 1000
same,Ratio IC50,Homo sapiens [2],> 1000
same,Ratio IC50,Homo sapiens [3],> 1000
same,Ratio IC50,Homo sapiens [4],> 1000
same,2PT,Plasma [5],5.6 µM
same,IC50,Trypsin,54000 nM
same,IC50,Prothrombin,32000 nM
same,2aPTT,Plasma [6],2.2 µM
same,IC50,Coagulation factor VII,11000 nM
same,IC50,Coagulation factor IX,42000 nM
C#Cc1ccc(NC(=O)c2cc(OC)ccc2NC(=O)c2nc3c(s2)CN(C)CC3)cc1,IC50,Coagulation factor X,20 nM
COc1ccc(NC(=O)c2nc3c(s2)CN(C)CC3)c(C(=O)Nc2ccc(Cl)cn2)c1,Cmax,[7],221 ng/mL
same,CL,[8],15.3 mL/min/kg
same,IC50,Coagulation factor X,3.5 nM
same,Activity,Rattus norvegicus [9],Dose-dependent effect
same,Activity,Rattus norvegicus [10],50%
same,Ratio IC50,Homo sapiens [1],> 1000
same,Ratio IC50,Homo sapiens [2],> 1000
same,Activity,H9c2,Active
same,Ratio IC50,Homo sapiens [3],> 1000
same,Ratio IC50,Homo sapiens [4],> 1000
same,Tmax,[11],3.2 h
same,half-life,[12],9.6 h
same,AUC,[13],2258 ng·h/mL
same,2PT,Plasma [5],0.8 µM
same,AUC,[14],1160 ng·h/mL
same,IC50,Trypsin,9100 nM
same,Activity,Rattus norvegicus [15],30%
same,Activity,[16],Dose-dependent effect
same,Activity,Rattus norvegicus [17],67%
same,IC50,Prothrombin,4200 nM
same,Activity,Rattus norvegicus [18],Dose-dependent effect
same,Activity,Rattus norvegicus [19],23%
same,F,[20],51.3%
same,beta t1/2,[21],8.8 h
same,Vdss,[22],0.201 L/kg
same,Activity,Rattus norvegicus [23],54%
same,2aPTT,Plasma [6],0.5 µM
same,Activity,[24],Toxic
same,Activity,Rattus norvegicus [25],36%
same,IC50,Coagulation factor VII,12000 nM
same,IC50,Coagulation factor IX,36000 nM
COc1ccc(NC(=O)c2ccc(N3CCCCC3=O)cc2)c(C(=O)Nc2ccc(C(C)(C)C)cc2)c1,IC50,Coagulation factor X,272 nM
COc1ccc(NC(=O)c2cc(OC)ccc2NC(=O)c2nc3c(s2)CN(C)CC3)cc1,IC50,Coagulation factor X,234 nM
COc1ccc(NC(=O)c2ccc(C(=N)N(C)C)cc2)c(C(=O)Nc2ccc(Cl)cn2)c1 [BETRIXABAN],Cmax,[7],146 ng/mL
same,CL,[8],22.7 mL/min/kg
same,Activity,Rattus norvegicus [10],43%
same,Activity,H9c2,inactive
same,Tmax,[11],2.6 h
same,half-life,[12],8.6 h
same,AUC,[13],1832 ng·h/mL
same,2PT,Plasma [5],2.4 µM
same,AUC,[14],571 ng·h/mL
same,Activity,Rattus norvegicus [15],24%
same,Activity,[16],Dose-dependent effect
same,Activity,Rattus norvegicus [17],61%
same,IC50,Prothrombin,18000 nM
same,Activity,Rattus norvegicus [19],27%
same,F,[20],30.2%
same,beta t1/2,[21],7.8 h
same,Vdss,[22],0.191 L/kg
same,Activity,Rattus norvegicus [23],59%
same,2aPTT,Plasma [6],1.1 µM
same,Activity,[24],Toxic
same,Activity,Rattus norvegicus [25],38%
COc1ccc(NC(=O)c2nc3c(s2)CN(C)CC3)c(C(=O)Nc2ccc(Cl)s2)c1,IC50,Coagulation factor X,1390 nM
COc1ccc(NC(=O)c2cc(OC)ccc2NC(=O)c2ccc(N3CCCCC3=O)cc2)cc1,IC50,Coagulation factor X,513 nM
COc1ccc(NC(=O)c2ccc(N3CCCC3=O)cc2)c(C(=O)Nc2ccc(Cl)cc2)c1,IC50,Coagulation factor X,653 nM
COc1ccc(NC(=O)c2ccc(N3CCCCC3=O)cc2)c(C(=O)Nc2ccccc2OC)c1,IC50,Coagulation factor X,3190 nM
COc1ccc(NC(=O)c2nc3c(s2)CN(C)CC3)c(C(=O)Nc2ccc(F)cn2)c1,IC50,Coagulation factor X,24 nM
O=C(NC[C@H]1CN(c2ccc(N3CCOCC3=O)cc2)C(=O)O1)c1ccc(Cl)s1,Activity,H9c2,Active
COc1ccc(NC(=O)c2nc3c(s2)CN(C)CC3)c(C(=O)Nc2ccc(Cl)cc2)c1,IC50,Coagulation factor X,4.8 nM
same,Ratio IC50,Homo sapiens [1],> 1000
same,Ratio IC50,Homo sapiens [2],> 1000
same,Ratio IC50,Homo sapiens [3],> 1000
same,Ratio IC50,Homo sapiens [4],> 1000
same,2PT,Plasma [5],1.3 µM
same,IC50,Trypsin,18000 nM
same,IC50,Prothrombin,7100 nM
same,2aPTT,Plasma [6],0.8 µM
same,IC50,Coagulation factor VII,4700 nM
same,IC50,Coagulation factor IX,26000 nM
COc1ccc(NC(=O)c2ccc(N3CCOCC3=O)cc2)c(C(=O)Nc2ccccc2OC)c1,IC50,Coagulation factor X,1540 nM
COc1ccc(NC(=O)c2ccc(-n3ccccc3=O)cc2)c(C(=O)Nc2ccc(Cl)cc2)c1,IC50,Coagulation factor X,179 nM
COc1ccc(NC(=O)c2nc3c(s2)CN(C)CC3)c(C(=O)Nc2cccc(Cl)c2)c1,IC50,Coagulation factor X,315 nM
COc1ccc(NC(=O)c2ccc(N3CCOCC3=O)cc2)c(C(=O)Nc2ccc(Cl)cc2)c1,IC50,Coagulation factor X,18 nM
COc1ccc(NC(=O)c2ccc(N3CCOCC3=O)cc2)c(C(=O)Nc2ccc(C(C)(C)C)cc2)c1,IC50,Coagulation factor X,2090 nM
COc1ccc(NC(=O)c2ccc(N3CCCCC3=O)cc2)c(C(=O)Nc2ccc(Cl)cc2)c1,IC50,Coagulation factor X,246 nM
